Results reported in patent publication US10376520B2, “Methods for the treatment of cardiovascular disorders” (Galapagos NV, priority 2015, dated 2019).

System: RA patients
Test: Atherogenic index, Study 1 (RA patients, add-on to MTX)
Assay type: in vivo, human
Conditions: for Atherogenic index Mean CFB - 24 weeks results / Atherogenic index Mean percentage CFB - 24 weeks results / Atherogenic index Median CFB - 24 weeks results: 200 mg q.d. continued over 24 weeks
Procedure: As used herein, the term ‘atherogenic index’ refers to
Double-blind, placebo-controlled add on study in subjects with moderately to severely active RA who have an inadequate response to methotrexate (MTX) (oral or parenteral).
Compound 1 (dosed as a [Compound 1:HCl:3H2O]) is dosed for twelve weeks once daily (q.d.) (50 mg, 100 mg or 200 mg) or twice daily (b.i.d.) (25 mg, 50 mg or 100 mg); or placebo.
At Week 12, the subjects on placebo who have not achieved 20% improvement in swollen joint count (SJC66) and tender joint count (TJC68) are re-randomized automatically to receive Compound 1 (dosed as a [Compound 1:HCl:3H2O]) either at 100 mg q.d. or 50 mg b.i.d. doses in a blinded fashion; subjects on 50 mg q.d. who have not achieved 20% improvement in SJC66 and TJC68 will be assigned to 100 mg q.d. and subjects on 25 mg b.i.d. that have not achieved a 20% improvement in SJC66 and TJC68 will be assigned to 50 mg b.i.d. Subjects who switch treatment at week 12 are handled as if they discontinued at week 12 for the purpose of statistical analysis, whereas subjects in the other groups will maintain their randomized treatment until Week 24.
The atherogenic index has been identified to be a good predictor of cardiovascular disorders risks and is calculated as follows: […]

[1] = 2 × 25 mg (b.i.d. group), week 1
[2] = 2 × 25 mg (b.i.d. group), week 2
[3] = 2 × 25 mg (b.i.d. group), week 4
[4] = 2 × 25 mg (b.i.d. group), week 8
[5] = 2 × 25 mg (b.i.d. group), week 12
[6] = 2 × 50 mg (b.i.d. group), week 1
[7] = 2 × 50 mg (b.i.d. group), week 2
[8] = 2 × 50 mg (b.i.d. group), week 4
[9] = 2 × 50 mg (b.i.d. group), week 8
[10] = 2 × 50 mg (b.i.d. group), week 12
[11] = 2 × 100 mg (b.i.d. group), week 1

O=C(Nc1nc2cccc(-c3ccc(CN4CCS(=O)(=O)CC4)cc3)n2n1)C1CC1 [Compound 1, cyclopropanecarboxylic acid {5-[4-(1,1-dioxo-thiomorpholin-4-ylmethyl)-phenyl]-[1,2,4]triazolo[1,5-a]pyridin-2yl}-amide]
Atherogenic index Median CFB - 12 weeks results (100 mg q.d., week 12): -0.10 mmol/L
Atherogenic index Mean CFB - 24 weeks results (week 1): -0.17 mmol/L
Atherogenic index Mean percentage CFB - 24 weeks results (week 1): −2.63%
Atherogenic index Median CFB - 24 weeks results (week 1): -0.10 mmol/L
Atherogenic index Mean CFB - 24 weeks results (week 2): -0.35 mmol/L
Atherogenic index Mean percentage CFB - 24 weeks results (week 2): −7.45%
Atherogenic index Median CFB - 24 weeks results (week 2): -0.25 mmol/L
Atherogenic index Mean CFB - 24 weeks results (week 4): -0.37 mmol/L
Atherogenic index Mean percentage CFB - 24 weeks results (week 4): −7.97%
Atherogenic index Median CFB - 24 weeks results (week 4): -0.30 mmol/L
Atherogenic index Mean CFB - 24 weeks results (week 8): -0.36 mmol/L
Atherogenic index Mean percentage CFB - 24 weeks results (week 8): −7.92%
Atherogenic index Median CFB - 24 weeks results (week 8): -0.30 mmol/L
Atherogenic index Mean CFB - 24 weeks results (week 12): -0.35 mmol/L
Atherogenic index Mean percentage CFB - 24 weeks results (week 12): −6.85%
Atherogenic index Median CFB - 24 weeks results (week 12): -0.30 mmol/L
Atherogenic index Mean CFB - 24 weeks results (week 16): -0.40 mmol/L
Atherogenic index Mean percentage CFB - 24 weeks results (week 16): −8.14%
Atherogenic index Median CFB - 24 weeks results (week 16): -0.40 mmol/L
Atherogenic index Mean CFB - 24 weeks results (week 20): -0.48 mmol/L
Atherogenic index Mean percentage CFB - 24 weeks results (week 20): −8.84%
Atherogenic index Median CFB - 24 weeks results (week 20): -0.40 mmol/L
Atherogenic index Mean CFB - 24 weeks results (week 24): -0.34 mmol/L
Atherogenic index Mean percentage CFB - 24 weeks results (week 24): −6.14%
Atherogenic index Median CFB - 24 weeks results (week 24): -0.30 mmol/L
Atherogenic index Mean CFB (200 mg q.d., week 1): -0.17 mmol/L
Atherogenic index Mean percentage CFB - 12 weeks results (200 mg q.d., week 1): −3%
Atherogenic index Median CFB - 12 weeks results (200 mg q.d., week 1): -0.10 mmol/L
Atherogenic index Mean CFB (200 mg q.d., week 2): -0.35 mmol/L
Atherogenic index Mean percentage CFB - 12 weeks results (200 mg q.d., week 2): −7%
Atherogenic index Median CFB - 12 weeks results (200 mg q.d., week 2): -0.25 mmol/L
Atherogenic index Mean CFB (200 mg q.d., week 4): -0.37 mmol/L
Atherogenic index Mean percentage CFB - 12 weeks results (200 mg q.d., week 4): −8%
Atherogenic index Median CFB - 12 weeks results (200 mg q.d., week 4): -0.30 mmol/L
Atherogenic index Mean CFB (200 mg q.d., week 8): -0.36 mmol/L
Atherogenic index Mean percentage CFB - 12 weeks results (200 mg q.d., week 8): −8%
Atherogenic index Median CFB - 12 weeks results (200 mg q.d., week 8): -0.30 mmol/L
Atherogenic index Mean CFB (200 mg q.d., week 12): -0.35 mmol/L
Atherogenic index Mean percentage CFB - 12 weeks results (200 mg q.d., week 12): −7%
Atherogenic index Median CFB - 12 weeks results (200 mg q.d., week 12): -0.30 mmol/L
Atherogenic index Mean CFB [1]: 0.07 mmol/L
Atherogenic index Mean percentage CFB - 12 weeks results [1]: 3%
Atherogenic index Median CFB - 12 weeks results [1]: 0.10 mmol/L
Atherogenic index Mean CFB [2]: -0.03 mmol/L
Atherogenic index Mean percentage CFB - 12 weeks results [2]: 0%
Atherogenic index Median CFB - 12 weeks results [2]: -0.10 mmol/L
Atherogenic index Mean CFB [3]: -0.04 mmol/L
Atherogenic index Mean percentage CFB - 12 weeks results [3]: 0%
Atherogenic index Median CFB - 12 weeks results [3]: 0.00 mmol/L
Atherogenic index Mean CFB [4]: -0.08 mmol/L
Atherogenic index Mean percentage CFB - 12 weeks results [4]: −1%
Atherogenic index Median CFB - 12 weeks results [4]: -0.10 mmol/L
Atherogenic index Mean CFB [5]: 0.00 mmol/L
Atherogenic index Mean percentage CFB - 12 weeks results [5]: 2%
Atherogenic index Median CFB - 12 weeks results [5]: -0.10 mmol/L
Atherogenic index Mean CFB [6]: -0.06 mmol/L
Atherogenic index Mean percentage CFB - 12 weeks results [6]: 0%
Atherogenic index Median CFB - 12 weeks results [6]: 0.00 mmol/L
Atherogenic index Mean CFB [7]: -0.21 mmol/L
Atherogenic index Mean percentage CFB - 12 weeks results [7]: −5%
Atherogenic index Median CFB - 12 weeks results [7]: -0.10 mmol/L
Atherogenic index Mean CFB [8]: -0.14 mmol/L
Atherogenic index Mean percentage CFB - 12 weeks results [8]: −3%
Atherogenic index Median CFB - 12 weeks results [8]: -0.10 mmol/L
Atherogenic index Mean CFB [9]: -0.18 mmol/L
Atherogenic index Mean percentage CFB - 12 weeks results [9]: −3%
Atherogenic index Median CFB - 12 weeks results [9]: -0.10 mmol/L
Atherogenic index Mean CFB [10]: -0.07 mmol/L
Atherogenic index Mean percentage CFB - 12 weeks results [10]: −1%
Atherogenic index Median CFB - 12 weeks results [10]: 0.00 mmol/L
Atherogenic index Mean CFB [11]: -0.05 mmol/L
Atherogenic index Mean percentage CFB - 12 weeks results [11]: 0%
Atherogenic index Median CFB - 12 weeks results [11]: 0.00 mmol/L
Atherogenic index Mean CFB (2 × 100 mg (b.i.d. group), week 2): -0.19 mmol/L
